# Laboratory results as given in patent US10543212B2, “Substituted amines for treating cardiac diseases” (Cardurion Pharmaceuticals, LLC, priority 2017, dated 2020).
# Target: T1, Full-length, GST-tagged, human CaMKIIδ (Homo sapiens, UniProt Q13557)
# T1 construct: Full-Length, Glutathione-S-Transferase(GST)-Tagged, Human CaMKIIδ was purchased from Carna Biosciences; purchased Carna Biosciences 02-111
# Assay: CaMKIIδ binding assay (TR-FRET with BODIPY-labeled probe ligand)
# Details: CaMKIIδ binding assay, results of Table 2
# In short: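 TR-FRET probe-displacement binding: 0.5 nM GST-CaMKIIδ with 10 μg/mL calmodulin, 1 mM CaCl2, 0.21 nM Tb-anti-GST Ab and 300 nM BODIPY probe in HEPES pH 7.6 buffer. Eight-point 4-fold dilutions, 1 hr at room temperature. IC50 from logistic fit; 100% inhibition defined by 3 μM parent compound.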
# T1 sequence (Q13557 1-478 isoform Q13557-12): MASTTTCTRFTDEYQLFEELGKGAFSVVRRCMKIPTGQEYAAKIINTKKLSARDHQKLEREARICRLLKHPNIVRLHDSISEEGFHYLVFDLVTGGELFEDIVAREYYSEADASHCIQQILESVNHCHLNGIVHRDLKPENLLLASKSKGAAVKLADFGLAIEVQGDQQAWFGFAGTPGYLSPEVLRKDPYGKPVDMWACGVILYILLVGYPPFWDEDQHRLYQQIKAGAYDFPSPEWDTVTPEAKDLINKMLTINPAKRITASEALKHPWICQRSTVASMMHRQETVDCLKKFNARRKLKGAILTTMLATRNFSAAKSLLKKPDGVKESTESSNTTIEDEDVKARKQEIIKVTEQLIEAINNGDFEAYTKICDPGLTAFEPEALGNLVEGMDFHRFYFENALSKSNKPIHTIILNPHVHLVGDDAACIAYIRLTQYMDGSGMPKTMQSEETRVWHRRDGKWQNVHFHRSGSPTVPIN
row,Compound,IC50
1,"COc1cc2c(cc1Nc1ncc(-c3ccc(Cl)c(O[C@@H](C)Cn4cnnn4)c3)cn1)N(C(C)=O)CC2 [Example 466, (S)-1-(6-((5-(3-((1-(1H-tetrazol-1-yl)propan-2-yl)oxy)-4-chlorophenyl)pyrimidin-2-yl)amino)-5-methoxyindolin-1-yl)ethan-1-one]",10 to 100 nM
2,"C[C@@H](Cn1cnnn1)Oc1cc(-c2cnc(Nc3cc(N4CCC(N5CCOCC5)CC4)ncc3OC(F)(F)F)nc2)ccc1Cl [Example 537, (S)-5-(3-((1-(1H-tetrazol-1-yl)propan-2-yl)oxy)-4-chlorophenyl)-N-(2-(4-morpholinopiperidin-1-yl)-5-(trifluoromethoxy)pyridin-4-yl)pyrimidin-2-amine]",< 10 nM
3,"COc1ccc(C(=O)N2CCCN(C)CC2)cc1Nc1ncc(-c2ccc(Cl)c(O[C@@H](C)Cn3cnnn3)c2)cn1 [Example 544, (S)-(3-((5-(3-((1-(1H-tetrazol-1-yl)propan-2-yl)oxy)-4-chlorophenyl)pyrimidin-2-yl)amino)-4-methoxyphenyl) (4-methyl-1,4-diazepan-1-yl)methanone]",< 10 nM
4,"COc1cc2c(cc1Nc1ncc(-c3ccc(Cl)c(O[C@@H](C)Cn4cnnn4)c3)cn1)CN(C1COC1)CCO2 [Example 454, (S)-N-(5-(3-((1-(1H-tetrazol-1-yl)propan-2-yl)oxy)-4-chlorophenyl)pyrimidin-2-yl)-8-methoxy-4-(oxetan-3-yl)-2,3,4,5-tetrahydrobenzo[f][1,4]oxazepin-7-amine]",≥ 100 nM

# Same assay, conditions: CaMKIIδ binding assay; activity class per Table 2
row,Compound,IC50
1,"C[C@@H](Cn1cnnn1)Oc1cc(-c2cnc(Nc3cn(C(C)(C)C(N)=O)nc3OCC(F)(F)F)nc2)ccc1Cl [Example 894, (S)-2-(4-((5-(3-((1-(1H-tetrazol-1-yl)propan-2-yl)oxy)-4-chlorophenyl)pyrimidin-2-yl)amino)-3-(2,2,2-trifluoroethoxy)-1H-pyrazol-1-yl)-2-methylpropanamide]",< 10 nM
2,"CC(=O)OC(C)(C)CN1CC2(CC(n3cc(Nc4ncc(-c5ccc(Cl)c(O[C@@H](C)Cn6cnnn6)c5)cn4)c(C(C)C)n3)C2)C1 [Example 975, (S)-1-(6-(4-((5-(3-((1-(1H-tetrazol-1-yl)propan-2-yl)oxy)-4-chlorophenyl)pyrimidin-2-yl)amino)-3-isopropyl-1H-pyrazol-1-yl)-2-azaspiro[3.3]heptan-2-yl)-2-methylpropan-2-yl acetate]",< 10 nM
3,"C[C@@H](Cn1cnnn1)Oc1cc(-c2cnc(Nc3cn(C4CC5(CNC5)C4)nc3OCC(F)(F)F)nc2)ccc1Cl [Example 925, (S)-5-(3-((1-(1H-tetrazol-1-yl)propan-2-yl)oxy)-4-chlorophenyl)-N-(1-(2-azaspiro[3.3]heptan-6-yl)-3-(2,2,2-trifluoroethoxy)-1H-pyrazol-4-yl)pyrimidin-2-amine]",< 10 nM

# Same assay, conditions: Table 2; CaMKIIδ binding assay, activity given as class A/B/C
row,Compound,IC50
1,"C[C@@H](Cn1cnnn1)Oc1cc(-c2cnc(Nc3cn(CS(C)(=O)=O)nc3C(F)(F)F)nc2)ccc1Cl [Example 848, (S)-5-(3-((1-(1H-tetrazol-1-yl)propan-2-yl)oxy)-4-chlorophenyl)-N-(1-((methylsulfonyl)methyl)-3-(trifluoromethyl)-1H-pyrazol-4-yl)pyrimidin-2-amine]",< 10 nM
2,"C[C@@H](Cn1cnnn1)Oc1cc(-c2cnc(Nc3cn(C4CCNCC4)nc3C(F)F)nc2)ccc1Cl [Example 771, (S)-5-(3-((1-(1H-tetrazol-1-yl)propan-2-yl)oxy)-4-chlorophenyl)-N-(3-(difluoromethyl)-1-(piperidin-4-yl)-1H-pyrazol-4-yl)pyrimidin-2-amine]",< 10 nM
3,"CC(C)N1CC2(CC(n3cc(Nc4ncc(-c5ccc(Cl)c(O[C@@H](C)Cn6cnnn6)c5)cn4)c(OCC(F)(F)F)n3)C2)C1 [Example 815, (S)-5-(3-((1-(1H-tetrazol-1-yl)propan-2-yl)oxy)-4-chlorophenyl)-N-(1-(2-isopropyl-2-azaspiro[3.3]heptan-6-yl)-3-(2,2,2-trifluoroethoxy)-1H-pyrazol-4-yl)pyrimidin-2-amine]",< 10 nM
4,"Cc1cc(Nc2ncc(-c3ccc(Cl)c(O[C@@H](C)Cn4cnnn4)c3)cn2)n(CCC#N)n1 [Example 746, (S)-3-(5-((5-(3-((1-(1H-tetrazol-1-yl)propan-2-yl)oxy)-4-chlorophenyl)pyrimidin-2-yl)amino)-3-methyl-1H-pyrazol-1-yl)propanenitrile]",≥ 100 nM
5,"Cc1noc(C)c1Cn1cc(Nc2ncc(-c3ccc(Cl)c(O[C@@H](C)Cn4cnnn4)c3)cn2)c(C(F)(F)F)n1 [Example 734, (S)-5-(3-((1-(1H-tetrazol-1-yl)propan-2-yl)oxy)-4-chlorophenyl)-N-(1-((3,5-dimethylisoxazol-4-yl)methyl)-3-(trifluoromethyl)-1H-pyrazol-4-yl)pyrimidin-2-amine]",10 to 100 nM

# Same assay, conditions: Table 2; activity class for CaMKIIδ
row,Compound,IC50
1,"C[C@@H](Cn1cnnn1)Oc1cc(-c2cnc(Nc3cn(CC4CCCN4)nc3C(F)(F)F)nc2)ccc1Cl (stereo partly drawn) [Example 602, 5-(3-(((S)-1-(1H-tetrazol-1-yl)propan-2-yl)oxy)-4-chlorophenyl)-N-(1-(pyrrolidin-2-ylmethyl)-3-(trifluoromethyl)-1H-pyrazol-4-yl)pyrimidin-2-amine]",< 10 nM
2,"COc1ccc(C(=O)N2CCCN(CCO)CC2)cc1Nc1ncc(-c2ccc(Cl)c(O[C@@H](C)Cn3cnnn3)c2)cn1 [Example 588, (S)-(3-((5-(3-((1-(1H-tetrazol-1-yl)propan-2-yl)oxy)-4-chlorophenyl)pyrimidin-2-yl)amino)-4-methoxyphenyl) (4-(2-hydroxyethyl)-1,4-diazepan-1-yl)methanone]",< 10 nM
3,"COc1cc(N2C[C@@H]3C[C@H]2CN3C2CCOCC2)ccc1Nc1ncc(-c2ccc(Cl)c(O[C@@H](C)Cn3cnnn3)c2)cn1 [Example 653, 5-(3-(((S)-1-(1H-tetrazol-1-yl)propan-2-yl)oxy)-4-chlorophenyl)-N-(2-methoxy-4-((1S,4S)-5-(tetrahydro-2H-pyran-4-yl)-2,5-diazabicyclo[2.2.1]heptan-2-yl)phenyl)pyrimidin-2-amine]",10 to 100 nM
4,"C[C@@H](Cn1cnnn1)Oc1cc(-c2cnc(Nc3cn(CC(=O)Nc4ccccc4)nc3C(F)(F)F)nc2)ccc1Cl [Example 617, (S)-2-(4-((5-(3-((1-(1H-tetrazol-1-yl)propan-2-yl)oxy)-4-chlorophenyl)pyrimidin-2-yl)amino)-3-(trifluoromethyl)-1H-pyrazol-1-yl)-N-phenylacetamide]",10 to 100 nM
5,"C[C@@H](Cn1cnnn1)Oc1cc(-c2cnc(Nc3cn(C4CCCCO4)nc3OCC(F)(F)F)nc2)ccc1Cl (stereo partly drawn) [Example 678, 5-(3-(((S)-1-(1H-tetrazol-1-yl)propan-2-yl)oxy)-4-chlorophenyl)-N-(1-(tetrahydro-2H-pyran-2-yl)-3-(2,2,2-trifluoroethoxy)-1H-pyrazol-4-yl)pyrimidin-2-amine]",< 10 nM
6,"C[C@@H](Cn1cnnn1)Oc1cc(-c2cnc(Nc3cn(CCN4CCCC4)nc3C(F)(F)F)nc2)ccc1Cl [Example 631, (S)-5-(3-((1-(1H-tetrazol-1-yl)propan-2-yl)oxy)-4-chlorophenyl)-N-(1-(2-(pyrrolidin-1-yl)ethyl)-3-(trifluoromethyl)-1H-pyrazol-4-yl)pyrimidin-2-amine]",< 10 nM
7,"C[C@@H](Cn1cnnn1)Oc1cc(-c2cnc(Nc3cn(CCN4CCOCC4)nc3C(F)(F)F)nc2)ccc1Cl [Example 633, (S)-5-(3-((1-(1H-tetrazol-1-yl)propan-2-yl)oxy)-4-chlorophenyl)-N-(1-(2-morpholinoethyl)-3-(trifluoromethyl)-1H-pyrazol-4-yl)pyrimidin-2-amine]",10 to 100 nM
